According to patent publication US10294202B2, “Pyrrolidinones as herbicides” (FMC Corporation, priority 2013, dated 2019):

Assays:
waterhemp = assay: Test C pre-/postemergence herbicide test; assay type: in vivo, Amaranthus rudis
Summary of the method: (§1)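 Two application timings ran in parallel with identically formulated test chemicals (non-phytotoxic solvent, surfactant included): spray on seeded loam–sand soil, and spray on emerged plants 2 to 18 cm high. Evaluation at 13 to 15 days compared each species with controls, rated from 0 up to 100.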

wheat (winter wheat) = assay: Test C pre-/postemergence herbicide test; assay type: in vivo, Triticum aestivum
Summary of the method: as §1

velvetleaf = assay: Test C pre-/postemergence herbicide test; assay type: in vivo, Abutilon theophrasti
Summary of the method: as §1

johnsongrass = assay: Test C pre-/postemergence herbicide test; assay type: in vivo, Sorghum halepense
Summary of the method: as §1

morningglory = assay: Test C pre-/postemergence herbicide test; assay type: in vivo, Ipomoea coccinea
Summary of the method: as §1

chickweed = assay: Test C postemergence herbicide test; assay type: in vivo, Stellaria media
Summary of the method: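 Greenhouse pot plants at 2 to 18 cm height (1- to 4-leaf stage) received a postemergence application of formulated test chemical. Visual ratings against untreated controls were made after 13 to 15 days, on a 0 (no effect) to 100 (complete control) scale.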

[1] = Postemergence, 31 g ai/ha, scale 0 to 100 (0 no effect, 100 complete control)
[2] = Postemergence, 62 g ai/ha, scale 0 (no effect) to 100 (complete control)
[3] = Postemergence, 125 g ai/ha, scale 0 to 100 (0 no effect, 100 complete control)
[4] = Postemergence, 250 g ai/ha, scale 0 to 100 (0 no effect, 100 complete control)
[5] = Preemergence, 31 g ai/ha, scale 0 to 100, 0 is no effect and 100 is complete control
[6] = Preemergence, 62 g ai/ha, scale 0 to 100 (0 no effect, 100 complete control)
[7] = Preemergence, 125 g ai/ha, scale 0 to 100 (0 no effect, 100 complete control)
[8] = 31 g ai/ha, scale 0 to 100 (0 no effect, 100 complete control)
[9] = 62 g ai/ha, scale 0 (no effect) to 100 (complete control)
[10] = 125 g ai/ha, scale 0 to 100 (0 no effect, 100 complete control)
[11] = 250 g ai/ha, scale 0 to 100 (0 no effect, 100 complete control)

O=C1NCC(c2cc(F)cc(F)c2)C1C(=O)Nc1ccc(F)cc1F (racemic) [Compound 278]
10: Plant response rating, Velvetleaf (velvetleaf; [3])
0: Plant response rating, Waterhemp (waterhemp; [1]) | Plant response rating, Waterhemp (waterhemp; [2]) | Waterhemp plant response rating (waterhemp; [5]) | Waterhemp plant response rating (waterhemp; [6]) | Plant response rating, Waterhemp (waterhemp; [7]) | Plant response rating (scale of 0 to 100), Waterhemp (waterhemp; Preemergence, 250 g ai/ha) | Plant response rating, Wheat (wheat (winter wheat); [1]) | Plant response rating, Wheat (wheat (winter wheat); [2]) | Plant response rating, Wheat (wheat (winter wheat); [3]) | Plant response rating, Wheat (wheat (winter wheat); [4]) | Wheat plant response rating (wheat (winter wheat); [5]) | Wheat plant response rating (wheat (winter wheat); [6]) | Plant response rating (scale of 0 to 100), Wheat (wheat (winter wheat); Preemergence, 250 g ai/ha) | Plant response rating, Velvetleaf (velvetleaf; [1]) | Plant response rating, Velvetleaf (velvetleaf; [2]) | Velvetleaf plant response rating (velvetleaf; [5]) | Velvetleaf plant response rating (velvetleaf; [6]) | Plant response rating, Velvetleaf (velvetleaf; [7]) | Plant response rating (scale of 0 to 100), Velvetleaf (velvetleaf; Preemergence, 250 g ai/ha) | Plant response rating, Johnsongrass (johnsongrass; [1]) | Plant response rating, Johnsongrass (johnsongrass; [2]) | Plant response rating, Johnsongrass (johnsongrass; [3]) | Plant response rating, Johnsongrass (johnsongrass; [4]) | Johnsongrass plant response rating (johnsongrass; [5]) | Johnsongrass plant response rating (johnsongrass; [6]) | Plant response rating, Johnsongrass (johnsongrass; [7]) | Plant response rating (scale of 0 to 100), Johnsongrass (johnsongrass; Preemergence, 250 g ai/ha) | Plant response rating, Morningglory (morningglory; [1]) | Plant response rating, Morningglory (morningglory; [2]) | Plant response rating, Morningglory (morningglory; [4]) | Morningglory plant response rating (morningglory; [5]) | Morningglory plant response rating (morningglory; [6]) | Plant response rating, Morningglory (morningglory; [7]) | Plant response rating (scale of 0 to 100), Morningglory (morningglory; Preemergence, 250 g ai/ha) | Plant response rating, Chickweed (chickweed; [8]) | Plant response rating, Chickweed (chickweed; [9]) | Plant response rating, Chickweed (chickweed; [10]) | Plant response rating, Chickweed (chickweed; [11])
5: Plant response rating, Waterhemp (waterhemp; [3]) | Plant response rating, Waterhemp (waterhemp; [4])
20: Plant response rating, Velvetleaf (velvetleaf; [4])
45: Plant response rating, Morningglory (morningglory; [3])

O=C1NCC(c2cc(F)cc(F)c2)C1C(=O)Nc1cccc(F)c1F (racemic) [Compound 279]
20: Plant response rating, Waterhemp (waterhemp; [2])
10: Plant response rating, Velvetleaf (velvetleaf; [2]) | Plant response rating, Velvetleaf (velvetleaf; [3]) | Plant response rating, Velvetleaf (velvetleaf; [4]) | Plant response rating, Morningglory (morningglory; [7]) | Plant response rating (scale of 0 to 100), Morningglory (morningglory; Preemergence, 250 g ai/ha)
30: Plant response rating (scale of 0 to 100), Wheat (wheat (winter wheat); Preemergence, 250 g ai/ha) | Plant response rating (scale of 0 to 100), Velvetleaf (velvetleaf; Preemergence, 250 g ai/ha) | Plant response rating, Morningglory (morningglory; [3]) | Plant response rating, Chickweed (chickweed; [10])
55: Plant response rating, Waterhemp (waterhemp; [7])
70: Plant response rating, Johnsongrass (johnsongrass; [7])
60: Plant response rating, Morningglory (morningglory; [2])
5: Plant response rating, Waterhemp (waterhemp; [1]) | Plant response rating, Morningglory (morningglory; [1]) | Plant response rating, Chickweed (chickweed; [8]) | Plant response rating, Chickweed (chickweed; [11])
75: Plant response rating, Chickweed (chickweed; [9])
25: Johnsongrass plant response rating (johnsongrass; [6]) | Plant response rating, Morningglory (morningglory; [4])
80: Plant response rating (scale of 0 to 100), Waterhemp (waterhemp; Preemergence, 250 g ai/ha) | Plant response rating (scale of 0 to 100), Johnsongrass (johnsongrass; Preemergence, 250 g ai/ha)
15: Plant response rating, Waterhemp (waterhemp; [3]) | Plant response rating, Waterhemp (waterhemp; [4]) | Waterhemp plant response rating (waterhemp; [6]) | Wheat plant response rating (wheat (winter wheat); [6])
0: Waterhemp plant response rating (waterhemp; [5]) | Plant response rating, Wheat (wheat (winter wheat); [1]) | Plant response rating, Wheat (wheat (winter wheat); [2]) | Plant response rating, Wheat (wheat (winter wheat); [3]) | Plant response rating, Wheat (wheat (winter wheat); [4]) | Wheat plant response rating (wheat (winter wheat); [5]) | Plant response rating, Velvetleaf (velvetleaf; [1]) | Velvetleaf plant response rating (velvetleaf; [5]) | Velvetleaf plant response rating (velvetleaf; [6]) | Plant response rating, Velvetleaf (velvetleaf; [7]) | Plant response rating, Johnsongrass (johnsongrass; [1]) | Plant response rating, Johnsongrass (johnsongrass; [2]) | Plant response rating, Johnsongrass (johnsongrass; [3]) | Plant response rating, Johnsongrass (johnsongrass; [4]) | Johnsongrass plant response rating (johnsongrass; [5]) | Morningglory plant response rating (morningglory; [5]) | Morningglory plant response rating (morningglory; [6])

O=C1NCC(c2cccc(OC(F)F)c2)C1C(=O)Nc1ccccc1F (stereo not drawn) [Compound 223]
90: Waterhemp plant response rating (waterhemp; [5])
55: Plant response rating (scale of 0 to 100), Johnsongrass (johnsongrass; Preemergence, 250 g ai/ha)
40: Plant response rating, Chickweed (chickweed; [8])
0: Plant response rating, Waterhemp (waterhemp; [1]) | Plant response rating, Waterhemp (waterhemp; [2]) | Waterhemp plant response rating (waterhemp; [6]) | Plant response rating, Waterhemp (waterhemp; [7]) | Plant response rating, Wheat (wheat (winter wheat); [1]) | Plant response rating, Wheat (wheat (winter wheat); [2]) | Plant response rating, Wheat (wheat (winter wheat); [3]) | Plant response rating, Wheat (wheat (winter wheat); [4]) | Wheat plant response rating (wheat (winter wheat); [5]) | Plant response rating, Velvetleaf (velvetleaf; [1]) | Plant response rating, Velvetleaf (velvetleaf; [2]) | Plant response rating, Velvetleaf (velvetleaf; [3]) | Velvetleaf plant response rating (velvetleaf; [5]) | Velvetleaf plant response rating (velvetleaf; [6]) | Plant response rating, Johnsongrass (johnsongrass; [1]) | Plant response rating, Johnsongrass (johnsongrass; [2]) | Plant response rating, Johnsongrass (johnsongrass; [3]) | Plant response rating, Johnsongrass (johnsongrass; [4]) | Johnsongrass plant response rating (johnsongrass; [5]) | Johnsongrass plant response rating (johnsongrass; [6]) | Plant response rating, Morningglory (morningglory; [1]) | Plant response rating, Morningglory (morningglory; [2]) | Plant response rating, Morningglory (morningglory; [3]) | Morningglory plant response rating (morningglory; [5]) | Morningglory plant response rating (morningglory; [6])
10: Plant response rating, Waterhemp (waterhemp; [3]) | Plant response rating, Waterhemp (waterhemp; [4]) | Plant response rating, Wheat (wheat (winter wheat); [7]) | Plant response rating, Morningglory (morningglory; [7])
25: Plant response rating (scale of 0 to 100), Waterhemp (waterhemp; Preemergence, 250 g ai/ha) | Plant response rating, Velvetleaf (velvetleaf; [7])
5: Wheat plant response rating (wheat (winter wheat); [6])
35: Plant response rating (scale of 0 to 100), Wheat (wheat (winter wheat); Preemergence, 250 g ai/ha) | Plant response rating (scale of 0 to 100), Velvetleaf (velvetleaf; Preemergence, 250 g ai/ha) | Plant response rating, Johnsongrass (johnsongrass; [7]) | Plant response rating, Morningglory (morningglory; [4])
45: Plant response rating, Chickweed (chickweed; [9])
50: Plant response rating, Chickweed (chickweed; [10])
80: Plant response rating, Chickweed (chickweed; [11])
20: Plant response rating, Velvetleaf (velvetleaf; [4]) | Plant response rating (scale of 0 to 100), Morningglory (morningglory; Preemergence, 250 g ai/ha)

O=C1NCC(c2ccc(C(F)(F)F)cc2)C1C(=O)Nc1ccc(F)c(F)c1F (stereo not drawn) [Compound 232]
30: Plant response rating, Velvetleaf (velvetleaf; [3])
40: Velvetleaf plant response rating (velvetleaf; [6])
65: Plant response rating, Velvetleaf (velvetleaf; [7])
85: Waterhemp plant response rating (waterhemp; [5]) | Plant response rating, Chickweed (chickweed; [9]) | Plant response rating, Chickweed (chickweed; [10]) | Plant response rating, Chickweed (chickweed; [11])
0: Plant response rating, Wheat (wheat (winter wheat); [1]) | Plant response rating, Wheat (wheat (winter wheat); [2]) | Wheat plant response rating (wheat (winter wheat); [5]) | Wheat plant response rating (wheat (winter wheat); [6]) | Plant response rating, Wheat (wheat (winter wheat); [7]) | Plant response rating, Johnsongrass (johnsongrass; [1]) | Johnsongrass plant response rating (johnsongrass; [5]) | Plant response rating, Morningglory (morningglory; [2]) | Morningglory plant response rating (morningglory; [5])
25: Velvetleaf plant response rating (velvetleaf; [5]) | Plant response rating, Johnsongrass (johnsongrass; [4]) | Plant response rating, Morningglory (morningglory; [3])
15: Plant response rating, Velvetleaf (velvetleaf; [2]) | Plant response rating, Morningglory (morningglory; [1]) | Morningglory plant response rating (morningglory; [6]) | Plant response rating, Morningglory (morningglory; [7])
5: Plant response rating, Wheat (wheat (winter wheat); [3]) | Plant response rating, Wheat (wheat (winter wheat); [4]) | Plant response rating (scale of 0 to 100), Wheat (wheat (winter wheat); Preemergence, 250 g ai/ha) | Plant response rating, Velvetleaf (velvetleaf; [1])
20: Plant response rating, Johnsongrass (johnsongrass; [2]) | Plant response rating, Johnsongrass (johnsongrass; [3]) | Johnsongrass plant response rating (johnsongrass; [6]) | Plant response rating (scale of 0 to 100), Morningglory (morningglory; Preemergence, 250 g ai/ha)
80: Plant response rating, Waterhemp (waterhemp; [3]) | Plant response rating, Waterhemp (waterhemp; [4])
95: Plant response rating (scale of 0 to 100), Waterhemp (waterhemp; Preemergence, 250 g ai/ha)
90: Waterhemp plant response rating (waterhemp; [6]) | Plant response rating, Waterhemp (waterhemp; [7])
70: Plant response rating (scale of 0 to 100), Johnsongrass (johnsongrass; Preemergence, 250 g ai/ha) | Plant response rating, Chickweed (chickweed; [8])
60: Plant response rating, Velvetleaf (velvetleaf; [4]) | Plant response rating, Johnsongrass (johnsongrass; [7]) | Plant response rating, Morningglory (morningglory; [4])
75: Plant response rating, Waterhemp (waterhemp; [1]) | Plant response rating, Waterhemp (waterhemp; [2]) | Plant response rating (scale of 0 to 100), Velvetleaf (velvetleaf; Preemergence, 250 g ai/ha)
